This is an account of results in patent US20250163072A1, “MACROCYCLIC COMPOUNDS FOR THE TREATMENT OF CANCER” (Hoffmann-La Roche Inc., priority 2021, published 2025).

The target in data set [1] is KRAS G12D binding to BRAF (Homo sapiens (Human), UniProt P01116+P62937, G12D). The experiment in a line: KRAS-BRAF with CYPA (50 nM) interaction assay (TR-FRET), G12D. To be noted: GMPPNP loaded 6His-KRAS, GST-BRAF RBD. As for the experimental part: (§1) In this example, TR-FRET was also used to measure the compound or compound-CYPA dependent disruption of the KRAS G12C-BRAF complex. This protocol was also used to measure disruption of KRAS G12D or KRAS G12V binding to BRAF by a compound of the invention, respectively. In assay buffer containing 25 mM HEPES PH=7.4 (4-(2-hydroxyethyl)-1-piperazineethanesulfonic acid, Thermo, 15630080), 0.002% Tween20, 0.1% BSA, 100 mM NaCl, 5 mM MgCl2, 10 μM GMPPNP (Guanosine 5'-[β,γ-imido]triphosphate trisodium salt hydrate, Sigma, G0635), tagless CYPA, GMPPNP loaded 6His-KRAS proteins, and GST-BRAF^RBD were mixed in a well of a 384-well assay plate at final concentrations of 50 nM, 6.25 nM and 1 nM, respectively. Compound was present in plate wells as a 16-point 3-fold dilution series starting at a final concentration of 10 μM and incubated for 3 hours. A mixture of MAb Anti-6His-XL665 (Cisbio, 61HISXLB) and Mab anti-GST-TB cryptate (Cisbio, 61GSTTLB) was then added at a final concentration of 6.67 nM and 0.21 nM, respectively, and the plate was incubated for an additional 1.5 hours. TR-FRET signal was read on a […] microplate reader (Ex320 nm, Em 665/615 nm). Compounds that facilitate disruption of the KRAS-BRAF complex were identified as those eliciting a decrease in the TR-FRET ratio relative to DMSO control wells.
KRAS G12D binding to BRAF, sequence (P01116-2 other isoform, or with tags, fused parts or gaps G12D): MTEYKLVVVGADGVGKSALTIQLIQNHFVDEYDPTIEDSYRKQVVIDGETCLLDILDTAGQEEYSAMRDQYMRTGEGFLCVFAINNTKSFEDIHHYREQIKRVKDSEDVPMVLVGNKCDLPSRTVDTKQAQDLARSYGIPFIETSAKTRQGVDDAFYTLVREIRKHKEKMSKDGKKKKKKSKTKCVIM
KRAS G12D binding to BRAF, sequence (P62937 whole entry): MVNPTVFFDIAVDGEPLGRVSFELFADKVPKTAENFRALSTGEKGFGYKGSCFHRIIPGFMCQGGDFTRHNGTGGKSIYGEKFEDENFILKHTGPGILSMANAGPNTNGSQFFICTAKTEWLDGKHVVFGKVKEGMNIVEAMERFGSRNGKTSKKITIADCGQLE

Data set [2] addresses T1, KRAS G12C-BRAF complex (Homo sapiens (Human), UniProt P01116+P62937, G12C). In words: KRAS-BRAF with CYPA (50 nM) interaction assay (TR-FRET), G12C. It is filed as binding. The note with it: GMPPNP loaded 6His-KRAS, GST-BRAF RBD. As for the experimental part:
as §1
In general terms: In TR-FRET formats the signal depends on donor and acceptor labels being close together.

The nature of data set [3]: GSH reaction rates (inherent GSH reactivity). It is filed as in vitro ADME. The method, then:
Therefore Strategy to minimize the GSH metabolism is very critical. Short T1/2 in inherent GSH reaction indicated high GSH reaction rate. Thus T1/2 in inherent GSH reaction assay was determined for the screening of candidates. Reference compounds and compounds of this invention potentially could form conjugation with GSH either through halogenated moieties substitution reaction or direct Michael addition reaction. This test was therefore performed to check GSH reactivity of listed compounds. For inherent GSH reactivity determination, compounds at 1 μM were incubated at 37° C. with and without 5 mM GSH for 0, 0.5, 1, 2, 4 and 6 h in 100 mM potassium phosphate buffer at pH 7.4. At the end of the designated time points, samples were quenched with acetonitrile containing 10 mM N-ethylmaleimide and an internal standard. Quenched samples were centrifuged, and supernatants were analyzed by LC-MS/MS for compound quantification.

The subject of data set [4] is KRAS G12C in NCI-H358 cells. In words: pERK inhibition assay, NCI-H358. It is filed as cell-based, human. The note with it: Homo sapiens, 4 hours incubation. A digest of the protocol: (§2)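 NCI-H358, AGS and SW620 cells in RPMI-1640/10% FBS were plated overnight, then exposed to compound (0.5% DMSO final) for 4 h. After fixation and permeabilization, phospho-ERK was quantified by in-cell ELISA (HRP secondary, TMB, OD450); IC50 from a 4-parameter sigmoidal fit.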

In data set [5] the test system is NCI-H358 cells. In words: Cell viability assay, NCI-H358. To be noted: Homo sapiens, NCI-H358, 72 hours, Cell Counting Kit-8, read-out: G12C IC50. It is filed as cell-based, human. A digest of the protocol: (§3)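 Cells were plated at 5,000 (NCI-H358) or 2,000 (AGS, SW620) per well and incubated overnight. They were then treated with compound in 0.5% DMSO for 72 h. Viability was read with CCK-8 as OD450 minus OD650 after 2 h, and IC50 came from a 4-parameter sigmoidal fit.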
(In general: Formazan colour is commonly taken as a measure of viable cells.)

Data set [6] in a line: Human hepatocytes stability assay. It is filed as in vitro ADME. The note with it: for CL_hep (Human): 1 μM compound, human hepatocytes 1×10^6 cells/mL; for Clearance Category: human hepatocytes. As for the experimental part:
The hepatocyte stability assay measures the rate of disappearance of a compound from incubations with cryopreserved suspension hepatocytes from human. Positive controls, including Midazolam, Raloxifene and Dextromethorphan, are included in every experiment. Incubations consist of 1 μM tested compound and suspension of human hepatocytes (1×10^6 cells/mL) in supplemented Williams' E Medium with […] and 0.5% Penicillin-streptomycin. The hepatocyte suspension was incubated with intermittent shaking 900 rpm at 37° C., in a 5% CO2 incubator. The reaction was stopped by adding methanol containing internal standard (2 μM Tolbutamide) at 2, 10, 20, 40, 60 and 120 minutes after compound addition, depletion of the parent compound was monitored by LC-MS/MS analysis.

Data set [7] deals with KRAS G12D in AGS cells. In words: pERK inhibition assay, AGS. In kind it is cell-based, human. To be noted: Homo sapiens, 4 hours incubation. An outline of the steps:
as §2

Data set [8] deals with KRAS G12V in SW620. The experiment in a line: pERK inhibition assay, SW620. The note with it: Homo sapiens, SW-620, SW620 cells, 4 hours incubation. In kind it is cell-based, human. A digest of the protocol:
as §2

Data set [9] deals with SW620 cells. In words: Cell viability assay, SW620. In kind it is cell-based, human. The note with it: Homo sapiens, SW-620, SW620, 72 hours, Cell Counting Kit-8, read-out: G12V IC50. A digest of the protocol:
as §3

Data set [10] has as its target KRAS G12V binding to BRAF (Homo sapiens (Human), UniProt P01116+P62937, G12V). In words: KRAS-BRAF with CYPA (50 nM) interaction assay (TR-FRET), G12V. To be noted: GMPPNP loaded 6His-KRAS, GST-BRAF RBD. The method, then:
as §1

Data set [11] relates to AGS cells. In words: Cell viability assay, AGS. In kind it is cell-based, human. To be noted: Homo sapiens, 72 hours, Cell Counting Kit-8, read-out: G12D IC50. An outline of the steps: as §3
For data set [12], the target named is T1, KRAS G12C-BRAF complex. In words: KRAS G12C-BRAF NanoBit assay. It is filed as cell-based. The note with it: HEK293 cells, SmBit-KRAS G12C and BRAF RBD-LgBit, 3 hours incubation. The method, then: This assay is to measure the ability of tested compounds in disruption of the KRAS G12C-BRAF complex at the cellular level, we established the NanoBit cellular assay in mammalian HEK293 (ATCC) cells. HEK293 cells were grown and maintained using DMEM medium (Thermo Fisher Scientific) with 10% fetal bovine serum and 1% penicillin/streptomycin. Both KRAS G12C and BRAF RBD were cloned into the NanoBit vectors ([…] vectors system, Promega) with the orientations SmBit-KRAS G12C and BRAF RBD-LgBit, respectively, and co-transfected into HEK293 cells. Cells were then selected with 100 μg/mL Hygromycin B (10687010, Thermo Fisher) and Blasticidin (5 μg/mL) for 4 weeks to get the stable cell pool. On the day of the assay, 75 nL of compound solution was presented in a 384-well assay plate as a 16-point 3-fold dilution starting from a final concentration of 30 μM in DMSO. Then cells were seeded at 10,000 cells/25 μL/well in a 384-well plate. After 3 hours of incubation, 6 μL of volume of Nano-Glo® Live Cell Substrate (Promega) was added into each well. Monitor luminescence using ultra384 model in Envision at 20 minutes. Compounds that facilitate disruption of the KRAS G12C-BRAF RBD complex were identified as those eliciting a decrease of luminescence relative to DMSO control wells.

T1 sequence (P01116-2 other isoform, or with tags, fused parts or gaps G12C): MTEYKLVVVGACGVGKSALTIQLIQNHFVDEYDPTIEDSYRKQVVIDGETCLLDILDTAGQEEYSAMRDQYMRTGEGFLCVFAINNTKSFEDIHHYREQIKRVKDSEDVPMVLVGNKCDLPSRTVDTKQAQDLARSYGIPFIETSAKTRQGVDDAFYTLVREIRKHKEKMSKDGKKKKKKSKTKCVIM
T1 sequence (P62937 whole entry): as the sequence (P62937 whole entry) above
KRAS G12V binding to BRAF, sequence (P01116-2 other isoform, or with tags, fused parts or gaps G12V): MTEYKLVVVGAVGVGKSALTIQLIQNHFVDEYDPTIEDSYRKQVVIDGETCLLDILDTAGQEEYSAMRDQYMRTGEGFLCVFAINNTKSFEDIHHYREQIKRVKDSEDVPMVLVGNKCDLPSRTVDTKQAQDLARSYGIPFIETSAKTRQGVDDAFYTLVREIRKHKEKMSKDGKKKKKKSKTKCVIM
KRAS G12V binding to BRAF, sequence (P62937 whole entry): as the sequence (P62937 whole entry) above

In the case of `CO[C@@H](C)c1ncc(N2CCN(C)CC2)cc1-c1c2c3cc(ccc3n1CC(F)(F)F)-c1csc(n1)C[C@H](NC(=O)[C@H](C(C)C)N(C)C(=O)[C@H]1CCN(C(=O)[C@H](F)Cl)C1)C(=O)N1CCC[C@H](N1)C(=O)OCC(C)(C)C2` (atropisomer, axis not shown; (M)) [Example 21, (3S)-1-[(2R)-2-chloro-2-fluoro-acetyl]-N-[(1S)-1-[[(7S,13S)-(20M)-20-[2-[(1S)-1-methoxyethyl]-5-(4-methylpiperazin-1-yl)-3-pyridyl]-17,17-dimethyl-8,14-dioxo-21-(2,2,2-trifluoroethyl)-15-oxa-4-thia-9,21,27,28-tetrazapentacyclo[17.5.2.12,5.19,13.022,26]octacosa-1(25),2,5(28),19,22(26),23-hexaen-7-yl]carbamoyl]-2-methyl-propyl]-N-methyl-pyrrolidine-3-carboxamide], the IC50 in [1] was > 10000 nM; in [2] it was 21 nM; in data set [4], 1 nM; in data set [5], 0.3 nM; in [7], 14 nM; in data set [8], 5 nM. Moreover, the IC50 was 8 nM in data set [9], > 10000 nM in data set [10] and 44 nM in data set [11]. Besides, the “Remaining at 6 hr in GSH (%)” value in data set [3] (1 μM compound, 5 mM GSH, 37° C., pH 7.4, 6 hr) is recorded as 88%. In [3] (1 μM compound, 5 mM GSH, 37° C., potassium phosphate buffer pH 7.4), the “T1/2(hour) in GSH” value is “stable (If % depletion after 6 hour incubation is less than 20%, compounds were reported as stable)”. Besides, the “CL_hep (Human)” value in [6] was <2.4 mL/min/kg. In addition, the “Clearance Category” value in data set [6] is “low (CL_hep (mL/min/kg)<6.96 is low clearance)”.
On to `CCn1c(-c2cc(N3CCN(CC(F)(F)F)CC3)cnc2[C@H](C)OC)c2c3cc(ccc31)-c1csc(n1)C[C@H](NC(=O)[C@H](C(C)C)N(C)C(=O)[C@H]1CCN(C(=O)[C@H](F)Cl)C1)C(=O)N1CCC[C@H](N1)C(=O)OCC(C)(C)C2` (atropisomer, axis not shown; (M)) [Example 26, (3S)-1-[(2R)-2-chloro-2-fluoro-acetyl]-N-[(1S)-1-[[(7S,13S)-21-ethyl-(20M)-20-[2-[(1S)-1-methoxyethyl]-5-[4-(2,2,2-trifluoroethyl)piperazin-1-yl]-3-pyridyl]-17,17-dimethyl-8,14-dioxo-15-oxa-4-thia-9,21,27,28-tetrazapentacyclo[17.5.2.12,5.19,13.022,26]octacosa-1(25),2,5(28),19,22(26),23-hexaen-7-yl]carbamoyl]-2-methyl-propyl]-N-methyl-pyrrolidine-3-carboxamide], for which the IC50 in data set [1] was 2720 nM; in data set [2], 36 nM; in [4] it was 1 nM; in data set [5], < 0.6 nM; in [7], 35 nM; in data set [8] it was 13 nM. Besides, the IC50 in data set [9] was found to be 45 nM; in [10], 200 nM; in [11] it was 140 nM.
On to `CCn1c(-c2cccnc2[C@H](C)OC)c2c3cc(ccc31)-c1cc(O)cc(c1)C[C@H](NC(=O)[C@H](C(C)C)N(C)C(=O)C1CC(C=O)C1)C(=O)N1CCC[C@H](N1)C(=O)OCC(C)(C)C2` (stereo partly drawn) [Example 3, N-[(1S)-1-[[(8S,14S)-22-ethyl-4-hydroxy-(21M)-21-[2-[(1S)-1-methoxyethyl]-3-pyridyl]-18,18-dimethyl-9,15-dioxo-16-oxa-10,22,28-triazapentacyclo[18.5.2.12,6.110,14.023,27]nonacosa-1(26),2,4,6(29),20,23(27),24-heptaen-8-yl]carbamoyl]-2-methyl-propyl]-3-formyl-N-methyl-cyclobutanecarboxamide], for which the IC50 in [1] was found to be 1030 nM; in [2], 1 nM; in data set [4], 9 nM; in [5], 41 nM; in data set [7], 683 nM; in [8] it was 245 nM. The IC50 turned out to be 684 nM in [9], 110 nM in data set [10] and 1300 nM in data set [11].
Consider `CCn1c(-c2cc(N3CCN(C)CC3)cnc2[C@H](C)OC)c2c3cc(ccc31)-c1csc(n1)C[C@H](NC(=O)[C@H](C(C)C)N(C)C(=O)[C@H]1CCN(C(=O)[C@H](F)Cl)C1)C(=O)N1CCCC(N1)C(=O)OCC(C)(C)C2` (stereo partly drawn) [Example 10, (3S)-1-[(2R)-2-chloro-2-fluoro-acetyl]-N-[(1S)-1-[[(7S,13S)-21-ethyl-(20M)-20-[2-[(1S)-1-methoxyethyl]-5-(4-methylpiperazin-1-yl)-3-pyridyl]-17,17-dimethyl-8,14-dioxo-15-oxa-4-thia-9,21,27,28-tetrazapentacyclo[17.5.2.12,5.19,13.022,26]octacosa-1(25),2,5(28),19,22(26),23-hexaen-7-yl]carbamoyl]-2-methyl-propyl]-N-methyl-pyrrolidine-3-carboxamide], for which, in data set [3] (6 h, 1 μM, pH 7.4), the “Remaining at 6 hr in GSH (%)” value is 85%. The IC50 is 3 nM in [4]; 21 nM in data set [12]; 0.4 nM in data set [5]; 31 nM in data set [7]; 11 nM in [8]; 59 nM in [9]. The IC50 in [11] stood at 52 nM. In addition, the “CL_hep (Human)” value in [6] was <2.4 mL/min/kg. Moreover, the “Clearance Category” value in data set [6] is “low (CL_hep (mL/min/kg)<6.96 is low clearance)”.

What is called IC50 is the point on the concentration scale where inhibition reaches its midpoint.
